Assay results published in patent publication US9067943B2, “[1,2,3]triazolo[4,5-D]pyrimidine derivatives” (priority 2011, dated 2015).
Like-named read-outs stand apart in the source and are kept apart here.

How the values were obtained:
[1] = target: T1, human CB1 receptors (Homo sapiens, UniProt P21554); assay: cAMP assay; type: cell-based
T1 construct: expressed in transfected cells; host or cells: CHO cells
Protocol: (§1) CHO cells expressing human CB1 or CB2 receptors are seeded 17-24 hours prior to the experiment 50.000 cells per well in a black 96 well plate with flat clear bottom (Corning Costar #3904) in DMEM (Invitrogen No. 31331), 1×HT supplement, with 10% fetal calf serum and incubated at 5% CO2 and 37° C. in a humidified incubator. The growth medium was exchanged with Krebs Ringer Bicarbonate buffer with 1 mM IBMX and incubated at 30° C. for 30 min. Compounds were added to a final assay volume of 100 μl and incubated for 30 min at 30° C. Using the cAMP-Nano-TRF detection kit the assay (Roche Diagnostics) was stopped by the addition of 50 μl lysis reagent (Tris, NaCl, 1.5% Triton X100, 2.5% NP40, 10% NaN3) and 50 μl detection solutions (20 μM mAb Alexa700-cAMP 1:1, and 48 μM Ruthenium-2-AHA-cAMP) and shaken for 2 h at room temperature. The time-resolved energy transfer is measured by a TRF reader (Evotec Technologies GmbH), equipped with a ND:YAG laser as excitation source. The plate is measured twice with the excitation at 355 nm and at the emission with a delay of 100 ns and a gate of 100 ns, total exposure time 10 s at 730 (bandwidth 30 nm) or 645 nm (bandwidth 75 nm), respectively. The FRET signal is calculated as follows: FRET=T730-Alexa730-P(T645-B645) with P=Ru730-B730/Ru645-B645, where T730 is the test well measured at 730 nM, T645 is the test well measured at 645 nm, B730 and B645 are the buffer controls at 730 nm and 645 nm, respectively. cAMP content is determined from the function of a standard curve spanning from 10 μM to 0.1 nM cAMP.
(§2) EC50 values were determined using Activity Base analysis (ID Business Solution, Limited). The EC50 values for a wide range of cannabinoid agonists generated from this assay were in agreement with the values published in the scientific literature.

[2] = target: T2, human CB2 receptors (Homo sapiens, UniProt P34972); assay: cAMP assay; type: cell-based
T2 construct: expressed in transfected cells; host or cells: CHO cells
Protocol: as §1, §2

[3] = functional cAMP assay, CHO cells expressing human CB2, read-out: human CB2 EC50

T2 sequence (P34972 whole entry): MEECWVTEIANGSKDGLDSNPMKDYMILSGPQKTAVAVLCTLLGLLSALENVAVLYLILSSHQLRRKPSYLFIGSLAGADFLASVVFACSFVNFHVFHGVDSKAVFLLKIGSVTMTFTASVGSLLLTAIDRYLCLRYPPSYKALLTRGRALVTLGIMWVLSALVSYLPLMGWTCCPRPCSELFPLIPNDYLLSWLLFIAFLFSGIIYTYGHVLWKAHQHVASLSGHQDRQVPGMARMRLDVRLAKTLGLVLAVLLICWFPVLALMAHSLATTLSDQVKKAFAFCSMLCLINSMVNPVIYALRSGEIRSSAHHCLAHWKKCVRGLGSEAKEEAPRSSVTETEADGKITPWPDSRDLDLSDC
T1 sequence (P21554 whole entry): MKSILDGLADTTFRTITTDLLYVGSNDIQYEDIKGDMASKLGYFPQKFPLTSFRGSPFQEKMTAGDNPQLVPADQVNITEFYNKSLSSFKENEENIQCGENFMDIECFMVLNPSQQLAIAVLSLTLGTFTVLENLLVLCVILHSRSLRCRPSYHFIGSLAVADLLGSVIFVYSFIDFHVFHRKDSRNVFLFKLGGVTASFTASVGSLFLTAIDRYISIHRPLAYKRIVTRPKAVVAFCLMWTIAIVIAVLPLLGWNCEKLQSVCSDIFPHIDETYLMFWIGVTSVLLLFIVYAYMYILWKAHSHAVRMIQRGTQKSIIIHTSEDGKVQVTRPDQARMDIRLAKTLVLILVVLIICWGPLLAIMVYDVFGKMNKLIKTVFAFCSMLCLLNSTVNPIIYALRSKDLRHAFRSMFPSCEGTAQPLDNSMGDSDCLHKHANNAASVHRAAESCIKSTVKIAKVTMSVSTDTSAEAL

Compound	EC50 [1]	EC50 [2]	EC50 [2, 3]
CC(C)(C)c1nc(N2CC[C@H](O)C2)c2nn(Cc3nc(Cl)ccc3Cl)nc2n1 [Example 76, (S)-1-[5-tert-Butyl-2-(3,6-dichloro-pyridin-2-ylmethyl)-2H-[1,2,3]triazolo[4,5-d]pyrimidin-7-yl]-pyrrolidin-3-ol]	> 10000 nM	5.9 nM	–
CC(C)(C)c1nc(N2CCC(F)(F)C2)c2nn(CCc3cccnc3)nc2n1 [Example 58, 5-tert-Butyl-7-(3,3-difluoro-pyrrolidin-1-yl)-2-(2-pyridin-3-yl-ethyl)-2H-[1,2,3]triazolo[4,5-d]pyrimidine]	> 10000 nM	4.3 nM	–
Cc1nonc1Cn1nc2nc(O[C@@H](C)C(F)(F)F)nc(N3CCC(F)(F)C3)c2n1 [Example 121, 7-(3,3-Difluoro-pyrrolidin-1-yl)-2-(4-methyl-furazan-3-ylmethyl)-5-((S)-2,2,2-trifluoro-1-methyl-ethoxy)-2H-[1,2,3]triazolo[4,5-d]pyrimidine]	> 10000 nM	7.5 nM	–
Cn1nnnc1Cn1nc2nc(C(C)(C)C)nc(N3CCC(F)(F)C3)c2n1 [Example 68, 5-tert-Butyl-7-(3,3-difluoro-pyrrolidin-1-yl)-2-(1-methyl-1H-tetrazol-5-ylmethyl)-2H-[1,2,3]triazolo[4,5-d]pyrimidine]	> 10000 nM	2.3 nM	–
CC(C)(C)c1nc(N2CCC(F)(F)C2)c2nn(Cc3cc(Cl)cnc3Cl)nc2n1 [Example 37, 5-tert-Butyl-2-(2,5-dichloro-pyridin-3-ylmethyl)-7-(3,3-difluoro-pyrrolidin-1-yl)-2H-[1,2,3]triazolo[4,5-d]pyrimidine]	> 10000 nM	0.9 nM	–
CC(C)(C)c1nc(N2CCC(F)(F)C2)c2nn(Cc3nccc(Cl)c3Cl)nc2n1 [Example 61, 5-tert-Butyl-2-(3,4-dichloro-pyridin-2-ylmethyl)-7-(3,3-difluoro-pyrrolidin-1-yl)-2H-[1,2,3]triazolo[4,5-d]pyrimidine]	> 10000 nM	2.6 nM	–
C[C@H](Oc1nc(N2CCC(F)(F)C2)c2nn(Cc3ccccc3C(F)(F)F)nc2n1)C(F)(F)F [Example 115, 7-(3,3-Difluoro-pyrrolidin-1-yl)-2-(2-trifluoromethyl-benzyl)-5-((S)-2,2,2-trifluoro-1-methyl-ethoxy)-2H-[1,2,3]triazolo[4,5-d]pyrimidine]	> 10000 nM	31.2 nM	–
C[C@H](Oc1nc(N2CCC(F)(F)C2)c2nn(Cc3nnnn3C)nc2n1)C(F)(F)F [Example 120, 7-(3,3-Difluoro-pyrrolidin-1-yl)-2-(1-methyl-1H-tetrazol-5-ylmethyl)-5-((S)-2,2,2-trifluoro-1-methyl-ethoxy)-2H-[1,2,3]triazolo[4,5-d]pyrimidine]	> 10000 nM	69.4 nM	–
Cc1nnc(Cn2nc3nc(C(C)(C)C)nc(N4CC[C@@](C)(O)C4)c3n2)o1 [Example 128-b, (R)-1-[5-tert-Butyl-2-(5-methyl-[1,3,4]oxadiazol-2-ylmethyl)-2H-[1,2,3]triazolo[4,5-d]pyrimidin-7-yl]-3-methyl-pyrrolidin-3-ol]	> 10000 nM	789 nM	–
CC(C)(C)c1nc(N2CCC(F)(F)C2)c2nn([C@H]3CCOC3)nc2n1 [Example 46, 5-tert-Butyl-7-(3,3-difluoro-pyrrolidin-1-yl)-2-(S)-tetrahydro-furan-3-yl-2H-[1,2,3]triazolo[4,5-d]pyrimidine]	> 10000 nM	2.8 nM	–
CC(=O)N[C@H]1CCN(c2nc(NC(C)(C)C)nc3nn(Cc4ccccc4Cl)nc23)C1 [Example 144, N—{(S)-1-[5-tert-Butylamino-2-(2-chloro-benzyl)-2H-[1,2,3]triazolo[4,5-d]pyrimidin-7-yl]-pyrrolidin-3-yl}-acetamide]	> 10000 nM	–	1950 nM
CC(C)(C)c1nc(N2CCC(F)(F)C2)c2nn(Cc3nc(Cl)ccc3Cl)nc2n1 [Example 38, 5-tert-Butyl-2-(3,6-dichloro-pyridin-2-ylmethyl)-7-(3,3-difluoro-pyrrolidin-1-yl)-2H-[1,2,3]triazolo[4,5-d]pyrimidine]	98.6 nM	1.1 nM	–
C[C@H](Oc1nc(N2CCC(F)(F)C2)c2nn(Cc3nnnn3C3CC3)nc2n1)C(F)(F)F [Example 123, 2-(1-Cyclopropyl-1H-tetrazol-5-ylmethyl)-7-(3,3-difluoro-pyrrolidin-1-yl)-5-((S)-2,2,2-trifluoro-1-methyl-ethoxy)-2H-[1,2,3]triazolo[4,5-d]pyrimidine]	> 10000 nM	49.3 nM	–
CC(C)(C)c1nc(N2CCC(F)(F)C2)c2nn(Cc3c(F)cccc3Cl)nc2n1 [Example 14, 5-tert-Butyl-2-(2-chloro-6-fluoro-benzyl)-7-(3,3-difluoro-pyrrolidin-1-yl)-2H-[1,2,3]triazolo[4,5-d]pyrimidine]	65 nM	0.5 nM	–
CC(C)(C)c1nc(N2CCC(F)(F)C2)c2nn(Cc3ccccc3S(C)(=O)=O)nc2n1 [Example 49, 5-tert-Butyl-7-(3,3-difluoro-pyrrolidin-1-yl)-2-(2-methanesulfonyl-benzyl)-2H-[1,2,3]triazolo[4,5-d]pyrimidine]	150 nM	0.4 nM	–
Cc1nonc1Cn1nc2nc(C(C)(C)C)nc(N3CC(F)(F)C(F)(F)C3)c2n1 [Example 99, 5-tert-Butyl-2-(4-methyl-furazan-3-ylmethyl)-7-(3,3,4,4-tetrafluoro-pyrrolidin-1-yl)-2H-[1,2,3]triazolo[4,5-d]pyrimidine]	> 10000 nM	0.9 nM	–
Cc1nc(Cn2nc3nc(C(C)(C)C)nc(N4CC[C@H](O)C4)c3n2)no1 [Example 86, (S)-1-[5-tert-Butyl-2-(5-methyl-[1,2,4]oxadiazol-3-ylmethyl)-2H-[1,2,3]triazolo[4,5-d]pyrimidin-7-yl]-pyrrolidin-3-ol]	> 10000 nM	52.2 nM	–
CC(C)(C)c1nc(N2CCC(F)(F)C2)c2nn(Cc3c(C(F)(F)F)ccc(Cl)c3Cl)nc2n1 [Example 60, 5-tert-Butyl-2-(2,3-dichloro-6-trifluoromethyl-benzyl)-7-(3,3-difluoro-pyrrolidin-1-yl)-2H-[1,2,3]triazolo[4,5-d]pyrimidine]	> 10000 nM	12.7 nM	–
Cc1c(Cn2nc3nc(C(C)(C)C)nc(N4CCC(F)(F)C4)c3n2)ccc[n+]1[O-] [Example 84, 5-tert-Butyl-7-(3,3-difluoro-pyrrolidin-1-yl)-2-(2-methyl-1-oxy-pyridin-3-ylmethyl)-2H-[1,2,3]triazolo[4,5-d]pyrimidine]	> 10000 nM	94 nM	–
Cc1noc(Cn2nc3nc(O[C@@H](C)C(F)(F)F)nc(N4CCC(F)(F)C4)c3n2)n1 [Example 119, 7-(3,3-Difluoro-pyrrolidin-1-yl)-2-(3-methyl-[1,2,4]oxadiazol-5-ylmethyl)-5-((S)-2,2,2-trifluoro-1-methyl-ethoxy)-2H-[1,2,3]triazolo[4,5-d]pyrimidine]	> 10000 nM	–	439 nM
Cc1nc(Cn2nc3nc(C(C)(C)C)nc(N4CCC(F)(F)C4)c3n2)n(C)n1 [Example 96, 5-tert-Butyl-7-(3,3-difluoro-pyrrolidin-1-yl)-2-(2,5-dimethyl-2H-[1,2,4]triazol-3-ylmethyl)-2H-[1,2,3]triazolo[4,5-d]pyrimidine]	> 10000 nM	22.6 nM	–
COc1ccc(F)c(Cn2nc3nc(C(C)(C)C)nc(N4CCC(F)(F)C4)c3n2)c1Cl [Example 57, 5-tert-Butyl-2-(2-chloro-6-fluoro-3-methoxy-benzyl)-7-(3,3-difluoro-pyrrolidin-1-yl)-2H-[1,2,3]triazolo[4,5-d]pyrimidine]	> 10000 nM	3.6 nM	–
Cn1nnnc1Cn1nc2nc(C(C)(C)C)nc(N3CC[C@](C)(O)C3)c2n1 [Example 130-a, (S)-1-[5-tert-Butyl-2-(1-methyl-1H-tetrazol-5-ylmethyl)-2H-[1,2,3]triazolo[4,5-d]pyrimidin-7-yl]-3-methyl-pyrrolidin-3-ol]	> 10000 nM	–	172 nM
CC(C)(C)c1nc(N2CCC(F)(F)C2)c2nn(CC(=O)c3cccnc3)nc2n1 [Example 54, 2-[5-tert-Butyl-7-(3,3-difluoro-pyrrolidin-1-yl)-[1,2,3]triazolo[4,5-d]pyrimidin-2-yl]-1-pyridin-3-yl-ethanone]	> 10000 nM	6.5 nM	–
Cc1cc(Cn2nc3nc(C(C)(C)C)nc(N4CCC(F)(F)C4)c3n2)n(C)n1 [Example 81, 5-tert-Butyl-7-(3,3-difluoro-pyrrolidin-1-yl)-2-(2,5-dimethyl-2H-pyrazol-3-ylmethyl)-2H-[1,2,3]triazolo[4,5-d]pyrimidine]	> 10000 nM	9.4 nM	–
